# Reference: PubChem BioAssay AID1996
# Settings: buffer; pH 7.4; 200.0 µM
row,Structure (SMILES),solubility kinetic [µg/mL]
1,CCSC1=NCCN1C(=O)C(C)(C)Oc1ccc(Cl)cc1,9.8
2,CCCOc1ccc(N/C=C/C(=O)c2ccc(OC)c(OC)c2)cc1,< 0.7
3,O=C(COC(=O)Cc1ccc(Cl)cc1)NC1CCCC1,> 44.4
4,CCC(=O)N1CC(=O)Nc2ccc(F)cc2C1c1ccc(F)cc1 (stereo not given),> 49.6
5,CC(C)Cc1nnc(NC(=O)C2=COCCO2)s1,> 40.4
6,O=C(O)CCC(=O)Nc1cccc(C(=O)c2ccccc2)c1,> 44.6
7,O=C(CSc1ncccn1)Nc1ccc(Cl)c(S(=O)(=O)N2CCOCC2)c1,> 64.3
8,CN(Cc1ccco1)C(=O)CCc1nc2sc3c(c2c(=O)[nH]1)CCCC3,22.4
9,Cc1ccnc(SCC(=O)Nc2cccc(S(=O)(=O)N3CCOCC3)c2)n1,> 61.3
10,CN(CCN(C)C(C)(C)C)C(=O)C(c1ccccc1)c1ccccc1,48
11,C=CCN=C1S/C(=C\c2ccc(Cl)cc2)C(=O)N1CC=C,2
12,O=C(NC(=S)Nc1ccc(F)c(Cl)c1)C1CC1,2.3
13,CCN(CC(=O)Nc1ccc2c(c1)OCCO2)C(=O)c1ccc(CS(C)(=O)=O)cc1,> 64.9
14,Cc1cccc(NC(=O)C(C)Sc2nc3nc(C)cc(C)n3n2)c1 (stereo not given),> 51.2
15,CCOc1ccc(S(=O)(=O)NCc2cccnc2)c2ccccc12,38.5
16,COCCCN1C(=O)CC(C(=O)OC)=C1C,> 34.1
17,COc1ccc(CC(=O)Nc2ccc(N(C)C)c3ccccc23)cc1,7.6
18,COc1ccc(/C(N)=N/OC(=O)CC2CCCCC2)cc1OC,19.1
19,O=C(Nc1cccc(F)c1)NC1CCCCCCC1,9
20,CCC(=O)Nc1ccc(N/C(N)=N/c2nc(C)cc(C)n2)cc1,36.1

row,Structure (SMILES),solubility kinetic [µg/mL]
1,Cn1ncc(C(=O)N=S(C)(=O)c2ccccc2)c1[N+](=O)[O-] (stereo not given),> 46.2
2,Cc1ccc(C)c(NC(=O)c2cc(C)nc3ccccc23)c1,33.5
3,O=C1C(Nc2ccccc2)=CC(c2ccc(O)cc2)N1c1ccccc1 (stereo not given),2
4,Cc1ccc2[nH]c(C(=O)N3CCN(C=O)CC3)cc2c1,> 40.7
5,Cc1cc(=O)[nH]c(SCC(=O)c2ccc(F)c(C)c2)n1,> 43.8
6,CC(=O)c1cc(C#N)c(SCC(=O)Nc2nccs2)nc1C,0.7
7,COC(=O)c1sccc1NC(=S)N1CCC(C(N)=O)CC1,42.5
8,O=C(c1ccccc1)C1CCN(c2ncccc2[N+](=O)[O-])CC1,10.8
9,O=C(NC(=S)Nc1ccc2oc(=O)ccc2c1)c1ccco1,2.8
10,NC(=O)CN1C(=O)C(=O)N(Cc2ccccc2)C1=O,38.7
11,O=C(Nc1ccc(N2CCOCC2)nc1)c1cccs1,> 43.4
12,Nc1c(N=O)c(=O)[nH]c(=O)n1-c1ccccc1,> 34.8
13,CCn1ccnc1CN(C)Cc1nc(CCC(C)C)no1,38.4
14,COc1cc(S(=O)(=O)Nc2ccc3c(c2)C(=O)N(C)C3=O)ccc1NC(C)=O,> 60.5
15,CCNC(=O)COc1ccc(OCc2ccccc2)cc1,29.1
16,Cc1cccc(C(=O)NCC(=O)OCC(=O)N2CCCCC2)c1,46
17,CC(=O)c1cccc(NC(=O)c2cc(=O)[nH]c3ccccc23)c1,12.5
18,CC1CC(C)CN(C(=O)COC(=O)c2cncc(Br)c2)C1 (stereo not given),42.4
19,Cc1ccccc1NC(=O)CCCC(=O)c1ccccc1,21.9
20,CCOc1cccnc1Sc1ccccc1,27.7

row,Structure (SMILES),solubility kinetic [µg/mL]
1,S=C(NC1CC1)N1CCN(C(=S)NC2CC2)CC1,> 42.7
2,Cc1cccc(-c2noc(CNC(=O)COc3ccccc3C)n2)c1,1.2
3,c1ccc2nc3c(nc2c1)CCCC3,> 27.6
4,O=C(c1ccoc1)N1CCC(CO)(CCc2ccccc2)CC1,46
5,Cc1ccc(C(C)NC(=O)Cc2cccs2)cc1C (stereo not given),> 41
6,Cc1ccc(NC(=O)c2ccc(F)cc2F)cc1NS(C)(=O)=O,39.7
7,S=C(NCCc1ccccc1)N1CCOCC1,> 37.6
8,COc1cc(OC)c(C(=O)NC2CCCc3ccccc32)cc1OC (stereo not given),44.3
9,CC1CC1C(=O)OCC(=O)N(C)CC(=O)Nc1ccc(F)cc1 (stereo not given),> 48.4
10,Cc1c(C)c2ccc(OCC(=O)Nc3ccccn3)cc2oc1=O,< 0.3
11,C#CCOc1ccc(/C=C2/C(=O)N(c3cccc(C(=O)O)c3)N=C2C)cc1OC,> 58.6
12,O=C(c1cc2cc(F)ccc2[nH]1)N1CCc2ccccc2C1,0.9
13,O=C(O)CN1CCN(Cc2cccc(Cl)c2)C1=O,> 40.3
14,Cn1cc(CCC(=O)NCc2cccc(Cl)c2)c2ccccc21,9.9
15,CC(C)Oc1ccc(C(=O)NCCNC(=O)c2ccco2)cc1,> 47.5
16,Cc1[nH]nc(SCC(=O)Nc2cccc(O)c2)c1[N+](=O)[O-],> 46.2
17,CC1(C)CC(=O)N(c2cccc(C(F)(F)F)c2)C(=O)C1,8.1
18,Cc1c(C(=O)Nc2ccc3c(c2)OCO3)oc2ccccc12,2.9
19,COc1ccc(S(=O)(=O)N(C)CC(=O)NCc2ccccn2)cc1,37.6
20,Nc1ccccc1Nc1nc2ccccc2[nH]1,> 33.6
